According to US20220119688A1, “LAMINATE, LIQUID CRYSTAL DISPLAY DEVICE, AND ORGANIC ELECTROLUMINESCENT DISPLAY DEVICE” (FUJIFILM Corporation, priority 2019, published 2022):

Assay: Evaluation of moisture-heat resistance: turbidity (crystal precipitation) in the transparent resin film
Type: physicochemical
Details: amount of 3.5 parts by mass or more
Procedure: (Evaluation of Moisture-Heat Resistance)
The transparent resin films A-1 to A-14 and B-1 to B-3 were aged for 20 days under moisture heat conditions of a temperature of 85° C. and a humidity of 85%, and the presence or absence of turbidity (crystal precipitation) in the transparent resin film was evaluated according to the following standards.
(Evaluation Standards for Turbidity)
A: Almost no change in appearance such as turbidity due to crystal precipitation is observed.

In the case of CCCCCCCCCOC(=O)/C(C#N)=C/C=C/N(CC)CC [UV-4], the crystal precipitation is reported as “caused crystal precipitation”.
For CCCCC(CC)COC(=O)/C(C#N)=C\C=C1/CCCN1C (centres unmarked) [UV-5], the crystal precipitation was “caused crystal precipitation”.
